Measured values reported in PubChem BioAssay AID2060341 (Molecular Pharmacology Branch, DTP, NCI, 2025).
“And” between values parts separate entries of the source, which are not always exact repeats. Equal entries are not always repeated.

Test system: 327498-153-R-J2-PDC multicell spheroid viability
Test: Anticancer human tumor 327498-153-R-J2-PDC patient-derived uterine carcinosarcoma cell line growth inhibition [IpAb]
Conditions: for viability, T/C: stronger effect = lower value
Source text: Combinatorial screen of targeted agents with ipatasertib and abemaciclib in multi-cell type tumor spheroids
A high-throughput screen of multi-cell type tumor spheroids was designed to identify active combinations of targeted small molecules and ipatasertib or abemaciclib. Complex spheroids include a stromal component modeled by human endothelial cells (HUVEC) and fibroblasts modeled by human mesenchymal stem cells (MSCs). The concentration ranges selected for each drug and investigational agent were based upon clinically achievable concentrations if the clinical Cmax of the agent was known.
Compounds. The drugs and investigational agents: ipatasertib (NSC767898), abemaciclib(NSC768073), selumetinib (NSC741078), trametinib (758246), adavosertib (NSC754352), everolimus (NSC733504), sapanisertib (NSC764658), vemurafenib (NSC761431), venetoclax (NSC766270), copanlisib (NSC809693), apelisib (NSC765974), palbociblib (NSC758247), vemurafenib (NSC761431), dabrafenib (NSC764134), ravoxertinib (NSC781343), BMS-387032 (NSC767048), sotorasib (NSC818433), talazoparib (NSC767125) and afursertib (NSC778305), were obtained from the National Cancer Institute (NCI) Developmental Therapeutics Program Chemical Repository. The FDA-approved anticancer drug set is available from the NCI Developmental Therapeutics Program. […] The stock solutions were prepared in dimethyl sulfoxide (DMSO, Sigma-Aldrich, St. Louis, MO, cat. D2650) at 800-fold the tested concentration and stored at -70 degrees C prior to their use. All drugs and investigational agents were tested over a range starting from a high concentration at or near the clinical Cmax and decreasing in half-log increments. If the clinical Cmax for an agent had not been determined, the highest concentration tested was 10 microM.
NCI60 Cell Culture. NCI60 cell lines were obtained from the NCI Developmental Therapeutics Program Tumor Repository. For each lot of cells, the Repository performed Applied Biosystems AmpFLSTR Identifiler testing with PCR amplification to confirm consistency with the published Identifier STR profile for each cell line. Cells were kept in continuous culture for no more than 20 passages. The optimal seeding densities for each of the cell lines at each time point assessed were determined prior to performing the concentration response studies. Briefly, the NCI60 human tumor lines were grown as monolayers in RPMI 1640 medium supplemented with 10% FBS and 2 mmol/L L-glutamine.
An additional 9 lines were from the NCI60 cell line panel including MDA-MB-231 breast carcinoma, MDA-MB-468 breast carcinoma, MCF7 breast carcinoma, Hs578T breast carcinoma, MALME-3M melanoma, SK-MEL-2 melanoma, SK-OV-3 ovarian carcinoma, DU-145 prostate carcinoma, PC-3 prostate carcinoma, all cell lines along with major genetic alterations are listed on Table 2. Pooled donor human umbilical vein endothelial cells (HUVEC, Lonza, cat. CC-2519) and human mesenchymal stem cells (hMSC, Lonza, cat. PT-2501) were purchased from Lonza (Walkersville, MD).
PDMR cell lines were grown in complete medium (DC medium): Dulbecco's modified Eagle's medium (DMEM)/F12 supplemented with 5% fetal bovine serum (FBS), 2 mM L-glutamine, 100 U/mL penicillin and 100 µg/ml streptomycin, 0.4 µg/ml hydrocortisone, 10 ng/ml epidermal growth factor (EGF) recombinant human protein, 24 µg/mL adenine, and 0.1 mg/mL primocin. During culture from frozen stock vials, PDMR cells were cultured in the same medium containing 10 µM Y-27632 (see Table 3). The PDCs were cultured in complete DMEM/F12 media without 10 microM Y-27632 dihydrochloride for at least two passages prior to the screen. The pooled donor HUVEC and hMSC were cultured in endothelial cell growth medium 2 (PromoCell, Heidelberg, Germany, cat. C-22011) and mesenchymal stem cell growth medium 2 (PromoCell, cat. C-28009), respectively. For all experiments, HUVEC and hMSC were used at passages </=5.
[…]

[1] = curve of first compound, second compound 0.1 µM
[2] = curve of first compound, second compound 0.316 µM
[3] = curve of first compound, second compound 1 µM
[4] = second compound 0.1 µM, first compound 0.00316 µM
[5] = second compound 0.1 µM, first compound 0.01 µM
[6] = second compound 0.1 µM, first compound 0.0316 µM
[7] = second compound 0.1 µM, first compound 0.1 µM
[8] = second compound 0.316 µM, first compound 0.00316 µM
[9] = second compound 0.316 µM, first compound 0.01 µM
[10] = second compound 0.316 µM, first compound 0.0316 µM
[11] = second compound 0.316 µM, first compound 0.1 µM
[12] = second compound 1 µM, first compound 0.00316 µM
[13] = second compound 1 µM, first compound 0.01 µM
[14] = second compound 1 µM, first compound 0.0316 µM
[15] = second compound 1 µM, first compound 0.1 µM
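Note: spheroids exposed to agents for 7 days.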
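Throughout, for viability, T/C: 100% = DMSO vehicle control viability.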

Which results are given for `Cn1ncnc1[C@H]1c2n[nH]c(=O)c3cc(F)cc(c23)N[C@@H]1c1ccc(F)cc1` + CC(C)NCC(C(=O)N1CCN(c2ncnc3c2C(C)CC3O)CC1)c1ccc(Cl)cc1?
IC50 [1]: 23.7 nM; IC50 [2]: 8.7 nM; IC50 [3]: 1.57 nM; IC50 (curve of first compound, second compound 3.16 µM): 0.58 nM; IC50 (curve of first compound, second compound 10 µM): < 0.316 nM; viability, T/C (second compound 0.1 µM, first compound 0.000316 µM): 94.7%; viability, T/C (second compound 0.1 µM, first compound 0.001 µM): 93.1%; viability, T/C [4]: 83.7%; viability, T/C [5]: 69.7%; viability, T/C [6]: 43.1%; viability, T/C [7]: 25.1%; viability, T/C (second compound 0.316 µM, first compound 0.000316 µM): 74.5%; viability, T/C (second compound 0.316 µM, first compound 0.001 µM): 71.6%; viability, T/C [8]: 64%; viability, T/C [9]: 47.8%; viability, T/C [10]: 31.1%; viability, T/C [11]: 20.6%; viability, T/C (second compound 1 µM, first compound 0.000316 µM): 60%; viability, T/C (second compound 1 µM, first compound 0.001 µM): 57.8%; viability, T/C [12]: 39.7%; viability, T/C [13]: 36.6%; viability, T/C [14]: 25.8%; viability, T/C [15]: 14.7%; viability, T/C (second compound 3.16 µM, first compound 0.000316 µM): 48.7%; viability, T/C (second compound 3.16 µM, first compound 0.001 µM): 53.4%; viability, T/C (second compound 3.16 µM, first compound 0.00316 µM): 37.8%; viability, T/C (second compound 3.16 µM, first compound 0.01 µM): 26.7%; viability, T/C (second compound 3.16 µM, first compound 0.0316 µM): 21.1%; viability, T/C (second compound 3.16 µM, first compound 0.1 µM): 12.8%; viability, T/C (second compound 10 µM, first compound 0.000316 µM): 39%; viability, T/C (second compound 10 µM, first compound 0.001 µM): 35.2%; viability, T/C (second compound 10 µM, first compound 0.00316 µM): 26.9%; viability, T/C (second compound 10 µM, first compound 0.01 µM): 20.7%; viability, T/C (second compound 10 µM, first compound 0.0316 µM): 14.8%; viability, T/C (second compound 10 µM, first compound 0.1 µM): 10.4%

Which results are given for `COc1c(OCCCN2CCOCC2)ccc2c3n(c(=NC(=O)c4cnc(N)nc4)nc12)CCN3` + CCN1CCN(Cc2ccc(Nc3ncc(F)c(-c4cc(F)c5nc(C)n(C(C)C)c5c4)n3)nc2)CC1?
IC50 (curve of first compound, second compound 0.01 µM): 63.7 nM; IC50 (curve of first compound, second compound 0.0316 µM): 32.1 nM; IC50 [1]: 13.9 nM; IC50 [2]: 5.63 nM; IC50 [3]: 6.38 nM; viability, T/C (second compound 0.01 µM, first compound 0.00316 µM): 81.9%; viability, T/C (second compound 0.01 µM, first compound 0.01 µM): 78.5%; viability, T/C (second compound 0.01 µM, first compound 0.0316 µM): 70.9%; viability, T/C (second compound 0.01 µM, first compound 0.1 µM): 36.3%; viability, T/C (second compound 0.01 µM, first compound 0.316 µM): 16.8%; viability, T/C (second compound 0.01 µM, first compound 1 µM): 9.29%; viability, T/C (second compound 0.0316 µM, first compound 0.00316 µM): 70.9%; viability, T/C (second compound 0.0316 µM, first compound 0.01 µM): 60.8%; viability, T/C (second compound 0.0316 µM, first compound 0.0316 µM): 52.5%; viability, T/C (second compound 0.0316 µM, first compound 0.1 µM): 24.9%; viability, T/C (second compound 0.0316 µM, first compound 0.316 µM): 12.4%; viability, T/C (second compound 0.0316 µM, first compound 1 µM): 8.64%; viability, T/C [4]: 63%; viability, T/C [5]: 55.5%; viability, T/C [6]: 37.4%; viability, T/C [7]: 22.6%; viability, T/C (second compound 0.1 µM, first compound 0.316 µM): 12.3%; viability, T/C (second compound 0.1 µM, first compound 1 µM): 9.1%; viability, T/C [8]: 51.6%; viability, T/C [9]: 48.6%; viability, T/C [10]: 38%; viability, T/C [11]: 23.3%; viability, T/C (second compound 0.316 µM, first compound 0.316 µM): 15.3%; viability, T/C (second compound 0.316 µM, first compound 1 µM): 10.6%; viability, T/C [12]: 51.9%; viability, T/C [13]: 49.2%; viability, T/C [14]: 39.8%; viability, T/C [15]: 26.6%; viability, T/C (second compound 1 µM, first compound 0.316 µM): 17.7%; viability, T/C (second compound 1 µM, first compound 1 µM): 10.6%

For `CCCS(=O)(=O)Nc1ccc(F)c(C(=O)c2c[nH]c3ncc(-c4ccc(Cl)cc4)cc23)c1F`, which viability, T/C (compound 0.0316 µM) is on record?
Its viability, T/C is 105% and 102%.

And the viability, T/C (compound 0.1 µM)?
Its viability, T/C is 116% and 103%.

What about the viability, T/C (compound 0.316 µM) of the same compound?
Its viability, T/C is 106% and 101%.

What about the viability, T/C (compound 1 µM) of the same compound?
The viability, T/C was 106% and 98.7%.

What about the viability, T/C (compound 3.16 µM) of the same compound?
The viability, T/C was 101% and 96.1%.

And the viability, T/C (compound 10 µM)?
The viability, T/C was 87.3% and 92.8%.

And the IC50 (curve of compound)?
The IC50 was > 10000 nM.
